Measured values from PMC8491162, “Targeting the JAK/STAT Pathway: A Combined Ligand- and Target-Based Approach” (Journal of Chemical Information and Modeling, 2021).
Where a name gives a salt, the structure may show the parent alone. Read-outs that look alike come from different tables or passages of the source. One block for each compound: values may come before it.

Columns and labels:
[1] = target: T1, JAK2 (Homo sapiens, UniProt O60674); parameters: method as in earlier work; conditions: Figure 13; read-out: IC50 of commercially available JAK2 inhibitors; cited from earlier work
T1 construct: purchased BPS Bioscience

[2] = target: T1, JAK2; assay: JAK2 activity assay (JAK2 assay kit, BPS Bioscience; Kinase Glo Max luminescence); format: biochemical
Method: According to the manufacturer’s instructions, the assay was performed in a white 96-well plate, in a total volume of 50 μL, adding a 5× kinase assay buffer, ATP (500 μM), protein tyrosine kinase substrate (10 mg/mL), water, tested molecules diluted in 0.1% DMSO solution, and JAK2 enzyme (2.5 ng/μL).
After 15 min of incubation at room temperature, the luminescence was measured by EnSpire Multimode Plate Reader (Perkin Elmer). All measurements were performed in triplicates for each compound, and the concentration range tested was 0.1–10 000 nM.

[3] = tested on: SH-SY5Y cells; assay: MTT cell viability assay; format: cell-based, Human; conditions: 100 μM, after 5 or 24 h, vs vehicle control
Method: Human SH-SY5Y neuroblastoma cells purchased from ICLC-IST (Genoa, Italy), were cultured in Dulbecco’s modified Eagle’s medium (DMEM), supplemented with 10% (v/v) fetal bovine serum (FBS), 100 units/mL penicillin, 100 μg/mL streptomycin, and 2 mM glutamine. Cells were incubated at 37 °C in a humidified atmosphere containing 5% CO2 and were allowed to reach 80% confluence before starting treatments. All reagents employed for cell culture were purchased from Lonza (Milan, Italy).
Drugs effects on cell viability were measured using the MTT [3-(4,5-dimethylthiazol-2-yl)-2,5-diphenyltetrazolium bromide] assay.[40] All reagents were purchased from Sigma-Aldrich (Milan, Italy) unless otherwise indicated. Briefly, cells were plated on 24-well plates at a density of 3 × 10^4 cells/well and were grown to reach 80% confluence. Cells were treated with vehicle (DMEM containing 0.1% dimethyl sulfoxide (DMSO)) or drugs dissolved in vehicle at the final concentrations of 1, 10, or 100 μM. After 5 or 24 h, the culture medium was removed and replaced with fresh DMEM containing the MTT solution (0.5 mg/mL) and cells were incubated in the dark for 3 h at 37 °C. […] The optical densities (ODs) were then recorded using a microplate spectrophotometer (GENios Tecan, Austria) at 590 nm. Results were expressed as a percentage of OD values of drug-treated cell cultures compared to vehicle-treated ones.

[4] = Solubility for in vitro testing; format: physicochemical; conditions: reason for not testing in vitro
[5] = 95% confidence limits in brackets, triplicates, read-out: IC50 in the enzymatic assay for JAK2 inhibition
[6] = as quoted in abstract and conclusions, read-out: IC50 against JAK2

T1 sequence (O60674 whole entry): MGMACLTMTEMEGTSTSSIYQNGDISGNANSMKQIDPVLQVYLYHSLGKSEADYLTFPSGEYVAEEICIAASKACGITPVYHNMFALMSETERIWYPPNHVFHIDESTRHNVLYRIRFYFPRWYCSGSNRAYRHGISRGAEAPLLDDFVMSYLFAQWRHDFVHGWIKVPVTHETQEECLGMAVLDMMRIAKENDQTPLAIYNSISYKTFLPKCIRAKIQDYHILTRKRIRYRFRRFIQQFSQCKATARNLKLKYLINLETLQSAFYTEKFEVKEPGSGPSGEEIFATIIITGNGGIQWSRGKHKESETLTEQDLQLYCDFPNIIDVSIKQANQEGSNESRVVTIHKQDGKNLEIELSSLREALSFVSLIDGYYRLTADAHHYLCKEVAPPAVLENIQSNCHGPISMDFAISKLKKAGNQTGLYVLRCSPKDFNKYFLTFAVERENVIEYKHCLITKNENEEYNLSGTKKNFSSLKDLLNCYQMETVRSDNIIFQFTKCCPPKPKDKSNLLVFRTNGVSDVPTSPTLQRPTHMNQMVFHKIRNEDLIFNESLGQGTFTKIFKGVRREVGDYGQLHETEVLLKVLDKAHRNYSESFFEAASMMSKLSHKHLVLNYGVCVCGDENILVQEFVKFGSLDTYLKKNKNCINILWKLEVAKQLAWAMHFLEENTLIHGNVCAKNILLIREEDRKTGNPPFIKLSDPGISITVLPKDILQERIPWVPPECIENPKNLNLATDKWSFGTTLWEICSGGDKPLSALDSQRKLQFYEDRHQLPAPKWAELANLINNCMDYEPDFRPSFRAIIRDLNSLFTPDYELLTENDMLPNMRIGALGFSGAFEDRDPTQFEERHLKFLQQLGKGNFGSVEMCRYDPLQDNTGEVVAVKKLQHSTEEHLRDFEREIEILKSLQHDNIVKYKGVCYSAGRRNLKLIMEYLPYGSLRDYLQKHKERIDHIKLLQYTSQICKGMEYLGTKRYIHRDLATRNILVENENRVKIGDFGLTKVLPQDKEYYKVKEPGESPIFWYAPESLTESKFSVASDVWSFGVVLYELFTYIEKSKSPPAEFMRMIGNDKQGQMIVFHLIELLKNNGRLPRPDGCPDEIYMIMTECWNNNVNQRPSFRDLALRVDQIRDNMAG

- IC50 [2, 5]: > 10 µM
SMILES: COc1cccc(C2C(C#N)=C(N)Oc3[nH]nc(C)c32)c1 (stereo not shown) [Compound 3]

- IC50 [2, 5]: 0.807 µM
- IC50 [2, 6]: 0.81 µM
SMILES: O=C1C2C3C=CC(CO)(O3)C2C(=O)N1c1cccc([N+](=O)[O-])c1 (stereo not shown) [Compound 4]

- IC50 [2, 5]: > 10 µM
SMILES: COC(=O)C1=C(C)NC(C)=C(C(=O)OCCN2CCN(C(=O)c3ccco3)CC2)C1c1cccc([N+](=O)[O-])c1 (stereo not shown) [Compound 8]
- Cell viability (MTT) [3]: significant decrease

- IC50 [2, 5]: 0.637 µM
- IC50 [2, 6]: 0.64 µM
SMILES: NS(=O)(=O)c1ccc(NC(=O)Cn2cnc3scc(-c4ccco4)c3c2=O)cc1 [Compound 7]

- IC50 [2, 5]: > 10 µM
SMILES: O=C(O)CSc1nnc2n1CCCN2 [Compound 6]
- Cell viability (MTT) [3]: significant decrease

- IC50 [2, 5]: > 10 µM
SMILES: Cc1n[nH]c(C)c1C(=O)CC1(O)C(=O)N(Cc2ccccc2)c2ccccc21 (stereo not shown) [Compound 5]

Further lines, the compound ahead of its results:

SMILES: CC(CCc1ccccn1)(CCc1ccccn1)C(=O)c1ccccc1 [NSC 42834]
- IC50 [1]: 15 µM

SMILES: C[C@H](NC(=O)/C(C#N)=C/c1cccc(Br)n1)c1ccccc1 [WP1066]
- IC50 [1]: 2.3 µM

SMILES: CC(=O)Nc1cc(Oc2ccc3c(nc(Nc4ccc(F)cc4F)n3C)c2C)ccn1 [CHZ868]
- IC50 [1]: 0.17 µM

SMILES: COCCNC(=O)c1cc2c(=O)n3cccc(C)c3nc2n(Cc2ccco2)c1=N [Compound 2]
- Solubility [4]: solubility problems

SMILES: CCCC1(CCC)CCC2(CCN(CCCN(CC)CC)C2)CC1 [Atiprimod dihydrochloride]
- IC50 [1]: 0.4 µM

SMILES: CC(=O)c1oc2ccccc2c1N [Compound 1]
- IC50 [2, 5]: > 10 µM
